PubChem BioAssay AID330 (DTP/NCI, 2004)
“And” between values parts separate entries of the source, which are not always exact repeats. Identical values can stand only once. Inconclusive results and toxic doses are left out. Rule for the calls: active = survival T/C of 150% or more; inactive = T/C below 125% in these data.

System: P388 leukemia ip, CD2F1 mice, survival T/C
Experiment: NCI In Vivo Anticancer Drug Screen. Data for tumor model P388 Leukemia (intraperitoneal) in CD2F1 (CDF1) mice
Conditions: endpoint: median survival time, higher = longer survival
Outline: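 Mice carrying the transplanted tumor received test compound or vehicle. Survival was recorded in each group, and the value is the treated-group measurement divided by that of the vehicle-treated control group.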

[1] = dose: 50.0 mg/kg/injection, schedule: Q01DX005 (ip), vehicle: Klucel (hydroxypropylcellulose) (HPC)
[2] = dose: 100.0 mg/kg/injection, schedule: Q01DX005 (ip), vehicle: Klucel (hydroxypropylcellulose) (HPC)
[3] = dose: 200.0 mg/kg/injection, schedule: Q01DX005 (ip), vehicle: Klucel (hydroxypropylcellulose) (HPC)
[4] = dose: 60.0 mg/kg/injection, schedule: Q01DX005 (ip), vehicle: Klucel (hydroxypropylcellulose) (HPC)
[5] = dose: 50.0 mg/kg/injection, schedule: Q01DX005 (ip), vehicle: saline
[6] = dose: 100.0 mg/kg/injection, schedule: Q01DX005 (ip), vehicle: saline
[7] = dose: 200.0 mg/kg/injection, schedule: Q01DX005 (ip), vehicle: saline
[8] = dose: 100.0 mg/kg/injection, schedule: Q01DX009 (ip), vehicle: saline with Tween-80
[9] = dose: 100.0 mg/kg/injection, schedule: Q04DX003 (ip), vehicle: saline with Tween-80
[10] = dose: 200.0 mg/kg/injection, schedule: Q04DX003 (ip), vehicle: saline with Tween-80
[11] = dose: 50.0 mg/kg/injection, schedule: Q01DX009 (ip), vehicle: saline with Tween-80
[12] = dose: 200.0 mg/kg/injection, schedule: Q01DX009 (ip), vehicle: saline with Tween-80

Measured: T/C

Cc1ccccc1N=C(c1ccccc1)C1C(=O)c2ccccc2C1=O
inactive: dose: 50.0 mg/kg/injection, schedule: Q01DX005 (ip), vehicle: DMSO 100 % of control | [1] 103 % of control | dose: 100.0 mg/kg/injection, schedule: Q01DX005 (ip), vehicle: DMSO 98 % of control | [2] 106 % of control | dose: 200.0 mg/kg/injection, schedule: Q01DX005 (ip), vehicle: DMSO 97 % of control | [3] 103 % of control | dose: 400.0 mg/kg/injection, schedule: Q01DX005 (ip), vehicle: DMSO 101 % of control | dose: 800.0 mg/kg/injection, schedule: Q01DX005 (ip), vehicle: DMSO 97 % of control

CC(=O)O.[Bi]
inactive: [4] 97 % of control | dose: 120.0 mg/kg/injection, schedule: Q01DX005 (ip), vehicle: Klucel (hydroxypropylcellulose) (HPC) 96 % of control | dose: 240.0 mg/kg/injection, schedule: Q01DX005 (ip), vehicle: Klucel (hydroxypropylcellulose) (HPC) 99 % of control

C=C1C(=O)C23OC2C1CCC(=O)C1(C)CC[C@H](OC(C)=O)C(C)(C)[C@H]1CC3O (some centres undefined)
inactive: dose: 5.0 mg/kg/injection, schedule: Q01DX005 (ip), vehicle: Klucel (hydroxypropylcellulose) (HPC) 104 % of control | dose: 10.0 mg/kg/injection, schedule: Q01DX005 (ip), vehicle: Klucel (hydroxypropylcellulose) (HPC) 109 % of control | dose: 20.0 mg/kg/injection, schedule: Q01DX005 (ip), vehicle: Klucel (hydroxypropylcellulose) (HPC) 111 % of control | dose: 40.0 mg/kg/injection, schedule: Q01DX005 (ip), vehicle: Klucel (hydroxypropylcellulose) (HPC) 110 % of control and 114 % of control

Nc1cnc(CO)nc1C(=O)O
inactive: [5] 100 % of control | [6] 102 % of control | [7] 107 % of control

CC(C)=CC1CC(=O)OC1(C)C (centres undefined)
inactive: dose: 12.5 mg/kg/injection, schedule: Q04DX002 (ip), vehicle: saline with Tween-80 98 % of control | dose: 25.0 mg/kg/injection, schedule: Q04DX002 (ip), vehicle: saline with Tween-80 104 % of control | dose: 50.0 mg/kg/injection, schedule: Q04DX002 (ip), vehicle: saline with Tween-80 100 % of control

S=c1[nH]c2cc(Cl)ccc2s1
inactive: [8] 109 % of control | [9] 100 % of control | [10] 104 % of control | dose: 400.0 mg/kg/injection, schedule: Q04DX003 (ip), vehicle: saline with Tween-80 109 % of control

c1cc2c(cc1CN1CCOCC1)CCc1cc(CN3CCOCC3)ccc1N2
inactive: dose: 15.0 mg/kg/injection, schedule: Q01DX005 (ip), vehicle: Klucel (hydroxypropylcellulose) (HPC) 101 % of control | dose: 30.0 mg/kg/injection, schedule: Q01DX005 (ip), vehicle: Klucel (hydroxypropylcellulose) (HPC) 100 % of control | [4] 94 % of control and 95 % of control

C[CH2][Ge]1([CH2]C)[CH2]CC2(CCN(CCCN(C)C)C2)C[CH2]1
inactive: dose: 0.09 mg/kg/injection, schedule: Q01DX009 (ip), vehicle: saline 103 % of control | dose: 0.19 mg/kg/injection, schedule: Q01DX009 (ip), vehicle: saline 103 % of control and 98 % of control | dose: 0.39 mg/kg/injection, schedule: Q01DX009 (ip), vehicle: saline 101 % of control and 103 % of control | dose: 0.78 mg/kg/injection, schedule: Q01DX009 (ip), vehicle: saline 100 % of control and 104 % of control | dose: 1.56 mg/kg/injection, schedule: Q01DX009 (ip), vehicle: saline 100 % of control and 92 % of control | dose: 3.12 mg/kg/injection, schedule: Q01DX009 (ip), vehicle: saline 104 % of control and 98 % of control | dose: 6.25 mg/kg/injection, schedule: Q01DX009 (ip), vehicle: saline 104 % of control | dose: 6.28 mg/kg/injection, schedule: Q01DX009 (ip), vehicle: water 101 % of control | dose: 12.5 mg/kg/injection, schedule: Q01DX009 (ip), vehicle: saline 101 % of control and 104 % of control | dose: 12.5 mg/kg/injection, schedule: Q01DX009 (ip), vehicle: water 106 % of control | dose: 25.0 mg/kg/injection, schedule: Q01DX009 (ip), vehicle: saline 100 % of control and 105 % of control | dose: 25.0 mg/kg/injection, schedule: Q01DX009 (ip), vehicle: water 107 % of control | dose: 50.0 mg/kg/injection, schedule: Q01DX009 (ip), vehicle: saline 100 % of control and 98 % of control | dose: 50.0 mg/kg/injection, schedule: Q01DX009 (ip), vehicle: water 123 % of control | dose: 75.0 mg/kg/injection, schedule: Q01DX009 (ip), vehicle: saline 103 % of control and 104 % of control

CCOC(=O)C(=O)/C=C/[C@H]1[C@H](C)CC=C[C@H]1NC(=O)OCc1ccccc1
inactive: dose: 60.0 mg/kg/injection, schedule: Q01DX005 (ip), vehicle: saline with Tween-80 103 % of control | dose: 120.0 mg/kg/injection, schedule: Q01DX005 (ip), vehicle: saline with Tween-80 99 % of control | dose: 240.0 mg/kg/injection, schedule: Q01DX005 (ip), vehicle: saline with Tween-80 97 % of control

O=[N+]([O-])c1nccn1CC(O)CCN1CCOCC1 (centres undefined)
inactive: dose: 25.0 mg/kg/injection, schedule: Q01DX005 (ip), vehicle: saline 110 % of control | [5] 102 % of control | [6] 102 % of control | [7] 106 % of control | dose: 400.0 mg/kg/injection, schedule: Q01DX005 (ip), vehicle: saline 101 % of control

CCC(C)(C)N=C(Nc1cccnc1)Nc1ncccn1
inactive: dose: 100.0 mg/kg/injection, schedule: Q04DX003 (ip), vehicle: saline 101 % of control | dose: 200.0 mg/kg/injection, schedule: Q04DX003 (ip), vehicle: saline 92 % of control

CC(C(=O)c1ccccc1)c1nc2nnc(N)n2[nH]c1=O (centres undefined)
inactive: dose: 60.0 mg/kg/injection, schedule: Q01DX005 (ip), vehicle: saline 95 % of control | dose: 120.0 mg/kg/injection, schedule: Q01DX005 (ip), vehicle: saline 100 % of control | dose: 240.0 mg/kg/injection, schedule: Q01DX005 (ip), vehicle: saline 95 % of control

O=C1C=C(OCc2ccccc2)C(=O)C(OCc2ccccc2)=C1
inactive: [1] 94 % of control | [2] 100 % of control | [3] 104 % of control

O/N=C1\CCCCC1C(O)c1c(Cl)cccc1Cl (centres undefined)
inactive: [11] 102 % of control | [8] 103 % of control | [12] 96 % of control

O=C1OC(C(=O)O)c2ccc3c(c21)OCO3 (centres undefined)
inactive: [8] 100 % of control | [12] 98 % of control | dose: 400.0 mg/kg/injection, schedule: Q01DX009 (ip), vehicle: saline with Tween-80 91 % of control

O=C1C=CC(=O)C(c2ccccc2)=C1
inactive: [1] 100 % of control | [2] 105 % of control | [3] 112 % of control

O=N[O-].O=N[O-].[NH-]CC[NH-].[Pt+2]
inactive: dose: 25.0 mg/kg/injection, schedule: Q01DX009 (ip), vehicle: saline with Tween-80 95 % of control | [11] 100 % of control | [8] 95 % of control

Cc1ccc(Cl)c([N+](=O)[O-])c1N
inactive: [9] 104 % of control | [10] 104 % of control

NSC(=S)NCc1ccco1
inactive: [1] 106 % of control and 107 % of control | [2] 101 % of control and 115 % of control | [3] 115 % of control and 119 % of control

CSC(=O)/N=C(\N)NC(=O)c1ccccc1
inactive: [1] 95 % of control | [2] 94 % of control | [3] 92 % of control
